Test results reported in article PMC6155659, “Application of the Triazolization Reaction to Afford Dihydroartemisinin Derivatives with Anti-HIV Activity” (Molecules : A Journal of Synthetic Chemistry and Natural …, 2017).
Like-named read-outs stand apart in the source and are kept apart here.

How the values were obtained:
[1] = system: double reverse transcriptase mutant (K103N; Y181C) HIV-1 strain (RES056); assay: Activity against double reverse transcriptase mutant HIV-1 strain RES056 in MT-4 cell cultures, MTT method; format: cell-based; conditions: for IC50: Human immunodeficiency virus 1, MT4, read-out: IC50 HIV-1 Strain RES056; for inhibitory activity against RES056 (in words): K103N, Y181C double RT mutant HIV-1, MT-4 cells
Description: (§1) The newly synthesized dihydroartemisinin triazole derivatives were evaluated for their inhibitory effects (IC50) on the replication of wild-type HIV-1 (IIIB) and HIV-2 (ROD) in MT-4 cell cultures, in parallel with their cytotoxicities (CC50) using the 3-(4,5-dimethylthiazol-2-yl)-2,5-diphenyl tetrazolium bromide (MTT) method. A series of nucleoside reverse transcriptase inhibitors (NRTIs)—i.e., azidothymidine (AZT), lamivudine (3TC) and didanosine (DDI)—and non-nucleoside reverse transcriptase inhibitors (NNRTIs)—i.e., nevirapine (NVP), efavirenz (EFV), and etravirine (ETR)—were included as reference compounds. The biological results are represented as IC50 and CC50 values in Table 3.
Most of the new triazole analogues of dihydroartemisinin are completely devoid of anti-HIV activity. […] The active molecules were also evaluated for their inhibitory activity against a double reverse transcriptase mutant (K103N; Y181C) HIV-1 strain (RES056). […] Therefore, the active β-tetralone derivatives most probably act via an NNRTI-type mode of action.

[2] = system: HIV-2 (ROD); assay: Anti-HIV-2 (ROD) activity in MT-4 cell cultures, MTT method; format: cell-based
Description: as §1

[3] = Cytotoxicity in mock-infected MT-4 cell cultures, MTT method; format: cell-based; conditions: human
Description: as §1

[4] = system: wild-type HIV-1 (IIIB); assay: Anti-HIV-1 (IIIB) activity in MT-4 cell cultures, MTT method; format: cell-based; conditions: for anti-HIV-1 wild-type activity (in words): MT-4 cells, HIV-1 IIIB
Description: as §1

[5] = system: MT-4 cells; assay: Cytotoxicity in mock-infected MT-4 cell cultures, MTT method; format: cell-based; conditions: cell culture
Description: as §1

[6] = Human immunodeficiency virus 2, MT4, 50% protection of MT-4 cell cultures against virus-induced cytotoxicity, MTT method, read-out: IC50 HIV-2 Strain ROD
[7] = Human immunodeficiency virus 1, IIIB, MT4, 50% protection of MT-4 cell cultures against virus-induced cytotoxicity, MTT method, read-out: IC50 HIV-1 Strain IIIB
[8] = mock-infected MT-4 cells, concentration reducing viability of mock-infected MT-4 cell cultures by 50%, MTT method, read-out: CC50
[9] = Human immunodeficiency virus 2, MT4, read-out: IC50 HIV-2 Strain ROD
[10] = concentration reducing viability of mock-infected MT-4 cell cultures by 50%, MTT method, read-out: CC50

| melting point | SMILES | IC50 [1] | IC50 [2, 6] | IC50 [4, 7] | CC50 [3, 8] | anti-HIV-1 wild-type activity (in words) [4] | inhibitory activity against RES056 (in words) [1] | IC50 [2, 9] | further results |
| --- | --- | --- | --- | --- | --- | --- | --- | --- | --- |
| 80 to 81 °C | COc1cc(Cn2nnc3c2CCC(C(=O)O[C@@H]2O[C@@H]4O[C@@]5(C)CCC6[C@H](C)CC[C@@H]([C@H]2C)[C@]64OO5)C3)cc(OC)c1OC (stereo partly drawn) | – | – | – | – | – | – | – | – |
| 105 to 106 °C | C[C@H]1[C@H](OCCn2nncc2-c2ccc(Br)c(Br)c2)O[C@@H]2O[C@@]3(C)CCC4[C@H](C)CC[C@@H]1[C@]42OO3 (stereo partly drawn) | – | – | – | – | – | – | – | – |
| 96 to 97 °C | C[C@H]1[C@H](OCCn2nnc3c2C[C@@H]2CC[C@@H]4[C@H](CC[C@]5(C)[C@@H](O)CC[C@@H]45)[C@@]2(C)C3)O[C@@H]2O[C@@]3(C)CCC4[C@H](C)CC[C@@H]1[C@]42OO3 (stereo partly drawn) | – | – | – | – | – | – | – | – |
| – | Cc1cn([C@H]2C[C@H](N=[N+]=[N-])[C@@H](CO)O2)c(=O)[nH]c1=O [Azidothymidine, azidothymidine, reference compound] | 0.0071 µM | 0.0082 µM | 0.0064 µM | – | – | – | – | CC50 [3]: > 7.5 µM |
| – | C[C@H]1[C@H](OCCn2nnc3c2-c2ccccc2CC3)O[C@@H]2O[C@@]3(C)CCC4[C@H](C)CC[C@@H]1[C@]42OO3 (stereo partly drawn) [Compound 8a, 1-(2-(((3R,6R,8aS,9R,10R,12R,12aR)-3,6,9-Trimethyldecahydro-12H-3,12-epoxy[1,2]dioxepino[4,3-i]isochromen-10-yl)oxy)ethyl)-4,5-dihydro-1H-naphtho[1,2-d][1,2,3]triazole] | – | > 10.3 µM | > 10.3 µM | > 10.3 µM | did not show any activity | – | – | – |
| – | COc1cc2c(cc1OC)-c1nnn(CCO[C@@H]3O[C@@H]4O[C@@]5(C)CCC6[C@H](C)CC[C@@H]([C@H]3C)[C@]64OO5)c1CC2 (stereo partly drawn) [Compound 8c, 7,8-Dimethoxy-3-(2-(((3R,6R,8aS,9R,10R,12R,12aR)-3,6,9-trimethyldecahydro-12H-3,12-epoxy[1,2]dioxepino[4,3-i]isochromen-10-yl)oxy)ethyl)-4,5-dihydro-3H-naphtho[1,2-d][1,2,3]triazole] | > 21.2 µM | – | 4.06 µM | 21.2 µM | inhibitory to HIV-1 replication | completely lose their inhibitory activity | > 21.2 µM | cytotoxicity (in words) [5]: limited cytotoxicity |
| – | COc1ccc2c(c1)-c1nnn(CCO[C@@H]3O[C@@H]4O[C@@]5(C)CCC6[C@H](C)CC[C@@H]([C@H]3C)[C@]64OO5)c1CC2 (stereo partly drawn) [Compound 8e, 8-Methoxy-3-(2-(((3R,6R,8aS,9R,10R,12R,12aR)-3,6,9-trimethyldecahydro-12H-3,12-epoxy[1,2]dioxepino[4,3-i]isochromen-10-yl)oxy)ethyl)-4,5-dihydro-3H-naphtho[1,2-d][1,2,3]triazole] | > 14.9 µM | – | 5.18 µM | 14.9 µM | inhibitory to HIV-1 replication | completely lose their inhibitory activity | > 14.9 µM | cytotoxicity (in words) [5]: limited cytotoxicity |
| – | O=c1[nH]cnc2c1ncn2[C@H]1CC[C@@H](CO)O1 [Didanosine, didanosine, reference compound] | – | 82.1 µM | 76 µM | – | – | – | – | CC50 [3]: > 212 µM |
| – | O=C1Nc2ccc(Cl)cc2[C@@](C#CC2CC2)(C(F)(F)F)O1 [Efavirenz, efavirenz] | 0.18 µM | > 6.3 µM | 0.0024 µM | – | – | only slightly affected | – | CC50 [3, 10]: > 6.3 µM |
| – | Cc1cc(C#N)cc(C)c1Oc1nc(Nc2ccc(C#N)cc2)nc(N)c1Br [Etravirine, etravirine] | 0.045 µM | – | – | 2.29 µM | – | only slightly affected | > 2.29 µM | IC50 ([4]; Human immunodeficiency virus 1, MT4, read-out: IC50 HIV-1 Strain IIIB): 0.0034 µM |
| – | Nc1ccn([C@@H]2CS[C@H](CO)O2)c(=O)n1 [Lamivudine, lamivudine, reference compound] | – | 9.9 µM | 2.53 µM | – | – | – | – | CC50 [3]: > 87.2 µM |
| – | Cc1ccnc2c1NC(=O)c1cccnc1N2C1CC1 [Nevirapine, nevirapine] | > 15 µM | > 15 µM | 0.075 µM | – | – | completely lose their inhibitory activity | – | CC50 [3, 10]: > 15 µM |

| SMILES | melting point | IC50 [1] | IC50 [2, 6] | IC50 [4, 7] | CC50 [3, 8] | anti-HIV-1 wild-type activity (in words) [4] | inhibitory activity against RES056 (in words) [1] | IC50 [2, 9] | further results |
| --- | --- | --- | --- | --- | --- | --- | --- | --- | --- |
| C[C@H]1[C@H](OCCn2nnc3c2CCc2ccccc2-3)O[C@@H]2O[C@@]3(C)CCC4[C@H](C)CC[C@@H]1[C@]42OO3 (stereo partly drawn) [Compound 8b, 3-(2-(((3R,6R,8aS,9R,10R,12R,12aR)-3,6,9-Trimethyldecahydro-12H-3,12-epoxy[1,2]dioxepino[4,3-i]isochromen-10-yl)oxy)ethyl)-4,5-dihydro-3H-naphtho[1,2-d][1,2,3]triazole] | 104 to 105 °C | > 31.5 µM | – | 2.78 µM | 31.5 µM | inhibitory to HIV-1 replication | completely lose their inhibitory activity | > 31.5 µM | cytotoxicity (in words) [5]: limited cytotoxicity |
